Values joined by “and” are separate entries in the source; they are usually repeats but may differ in a detail not shown here. Equal values may be shown once. Read-outs that look alike come from different tables or passages of the source.
What was measured:
[1] = test system: C. elegans complex IV (cytochrome C oxidase); test: In vitro complex IV activity assay, C. elegans mitochondria; type: biochemical, Caenorhabditis elegans
How it was run: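 Cytochrome C oxidase activity read spectrophotometrically at 550 nm (30 s intervals, 15 min) as oxidation of freshly DTT-reduced CytC. Mitochondria (0.2 mg/mL) came from adult worms of six C. elegans strains grown at 20 °C. Rates were taken from initial linear phase and normalised to solvent-control wells.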

[2] = target: M. musculus (heart) complex I (Mus musculus, UniProt P03888+Q91WD5+Q9DC70); test: biochemical; type: biochemical; parameters: Complex I activity, dose-response data: unit not given here; settings: for activity at 0.0001 µM / Complex I activity, dose-response data / activity at 0.0005 µM / activity at 0.001 µM / activity at 0.0025 µM / activity at 0.005 µM / activity at 0.013 µM / activity at 0.025 µM / activity at 0.063 µM / activity at 0.125 µM / activity at 0.313 µM / activity at 0.625 µM / activity at 1.5 µM / activity at 3 µM / activity at 15 µM / activity at 37.5 µM / activity at 75 µM: M. musculus; for activity at 0.0001 µM / activity at 0.0005 µM / activity at 0.001 µM / activity at 0.0025 µM / activity at 0.005 µM / activity at 0.013 µM / activity at 0.025 µM / activity at 0.063 µM / activity at 0.125 µM / activity at 0.313 µM / activity at 0.625 µM / activity at 1.5 µM / activity at 3 µM / activity at 15 µM / activity at 37.5 µM / activity at 75 µM: read-out: Complex I activity, dose-response data
Procedure: Six 8–10-week-old C57Bl/6 female mice (Charles River) were freshly dissected, and their livers and hearts collected into separate 1.5 mL microcentrifuge tubes. Organs were flash-frozen in liquid nitrogen and stored at −80 °C prior to use. The heart of a freshly slaughtered adult cow was obtained from a local abattoir (Peel Sausage Inc.), chopped into ~1-inch cubes and collected into 50 mL falcon tubes. Falcon tubes were flash-frozen in a container of dry ice and stored at −80 °C prior to use. Isolation of mitochondria from all mammalian tissue was carried out following the protocol described above. However, due to size, the initial homogenization of tissue was performed by 15 strokes in a dounce homogenizer (mouse heart) or with several 5 s pulses in small Nutribullet blender (cow heart). All mouse protocols for mouse care and dissection were reviewed and approved by the University of Toronto Animal Care Committee, in accordance with the Canadian Council on Animal Care.
The enzymatic activities of individual ETC complexes (I-IV) were assessed spectrophotometrically in isolated mitochondria using a Varioskan LUX Multimode plate reader (ThermoFisher Scientific). Mitochondrial pellets previously isolated were thawed on ice and resuspended in ice-cold isolation buffer (250 mM sucrose, 10 mM Tris (pH 7.5), 1 mM EDTA). The BCA assay (Walker, 1994) was used to quantify the protein concentration of mitochondria suspensions; solutions were diluted to a concentration of 0.2 mg/mL for use in all assays. For the complex I assay, mitochondria pellets were freeze-thawed on ice three times to increase enzyme accessibility. […] 20 μL mitochondria suspension was then added/mixed with a pipette to initiate the reaction. Immediately following the addition of mitochondria, absorbance was measured (complex I and II: 600 nm; complex III and IV: 550 nm) in 30 s intervals over 15 min. Enzymatic activity was determined in each reaction by plotting absorbance versus time and calculating the slope of the curve during the initial linear phase of the reaction. […] Percent activity of each complex was calculated by dividing the enzyme-specific activity of each well by the enzyme-specific activity of the corresponding solvent controls.
Chemical solutions were prepared in complex I assay buffer composed of 25 mM KPi buffer (pH 7.5), 3 mg/mL bovine serum albumin (BSA), 80 μM NADH, 60 μM decylubiquinone, 160 μM DCIP, 2 μM antimycin A and 2 mM KCN.
For preliminary screens of hit compounds, compounds were screened at 100 μM; data are the average of at least three biological replicates. The complex I and II activity assays were used for additional dose-response experiments. […] For dose responses of benzimidazole analogs, data represent the average of two biological replicates. For all other dose-responses, data represent the average of at least three biological replicates.

[3] = dose 0.0001 µM, individual replicates (Rep)
[4] = dose 0.0005 µM, individual replicates (Rep)
[5] = dose 0.001 µM, individual replicates (Rep)
[6] = dose 0.0025 µM, individual replicates (Rep)
[7] = dose 0.005 µM, individual replicates (Rep)
[8] = dose 0.013 µM, individual replicates (Rep)
[9] = dose 0.025 µM, individual replicates (Rep)
[10] = dose 0.063 µM, individual replicates (Rep)
[11] = dose 0.125 µM, individual replicates (Rep)
[12] = dose 0.313 µM, individual replicates (Rep)
[13] = dose 0.625 µM, individual replicates (Rep)
[14] = dose 1.5 µM, individual replicates (Rep)
[15] = dose 3 µM, individual replicates (Rep)
[16] = dose 15 µM, individual replicates (Rep)
[17] = dose 37.5 µM, individual replicates (Rep)
[18] = dose 75 µM, individual replicates (Rep)

Sequence of M. musculus (heart) complex I (Q91WD5 34-463): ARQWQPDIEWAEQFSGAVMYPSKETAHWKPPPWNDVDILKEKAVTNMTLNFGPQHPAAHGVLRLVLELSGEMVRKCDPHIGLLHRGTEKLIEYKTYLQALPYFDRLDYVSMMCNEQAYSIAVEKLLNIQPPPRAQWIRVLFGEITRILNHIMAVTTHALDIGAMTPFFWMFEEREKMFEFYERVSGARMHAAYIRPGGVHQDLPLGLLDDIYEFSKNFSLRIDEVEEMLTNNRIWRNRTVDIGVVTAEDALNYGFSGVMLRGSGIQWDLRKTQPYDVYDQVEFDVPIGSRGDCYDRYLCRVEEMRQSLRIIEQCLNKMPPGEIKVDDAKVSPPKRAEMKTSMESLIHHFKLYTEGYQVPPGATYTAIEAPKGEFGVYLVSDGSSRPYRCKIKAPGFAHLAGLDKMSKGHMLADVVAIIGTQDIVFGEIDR
Sequence of M. musculus (heart) complex I (Q9DC70 36-224): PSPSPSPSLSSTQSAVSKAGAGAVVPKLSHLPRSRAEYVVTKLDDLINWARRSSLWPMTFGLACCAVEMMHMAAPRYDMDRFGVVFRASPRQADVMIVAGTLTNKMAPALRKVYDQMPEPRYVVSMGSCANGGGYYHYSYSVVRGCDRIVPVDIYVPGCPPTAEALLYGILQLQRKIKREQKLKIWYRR
Sequence of M. musculus (heart) complex I (P03888 whole entry): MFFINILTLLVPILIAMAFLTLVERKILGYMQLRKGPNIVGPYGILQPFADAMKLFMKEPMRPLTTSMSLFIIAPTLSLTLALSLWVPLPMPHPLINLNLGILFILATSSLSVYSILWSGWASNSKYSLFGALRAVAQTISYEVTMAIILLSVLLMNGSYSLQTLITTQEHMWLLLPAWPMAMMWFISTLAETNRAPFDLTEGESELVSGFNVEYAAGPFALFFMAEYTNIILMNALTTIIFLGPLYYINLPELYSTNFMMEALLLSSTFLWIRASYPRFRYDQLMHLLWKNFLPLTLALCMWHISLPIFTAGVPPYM

Compound: COc1cc2c(cc1OC)C(/C=C/c1ccc(N(C)C)cc1)=NCC2 [NPD6303]
- % Activity Complex IV ([1]; 100 µM compound, relative to solvent control, mean (SEM)): 83.07 (1.76) %
- Percent in vitro activity, Complex IV (single replicate Rep1-Rep4) ([1]; 100 μM of NPD compound, C. elegans mitochondria, individual biological replicates): 86.689% and 90.588% and 80.321% and 74.685%
- Percent in vitro activity, Complex IV (Mean) ([1]; 100 μM of NPD compound, C. elegans mitochondria, mean of four biological replicates): 83.071%
- activity at 0.0001 µM ([2]; dose 0.0001 µM, Mean of replicates): 101%
- Complex I activity, dose-response data [2, 3]: 95.113 and 105.612 and 100.336
- activity at 0.0001 µM [2, 3]: 101%
- activity at 0.0005 µM ([2]; dose 0.0005 µM, Mean of replicates): 103%
- Complex I activity, dose-response data [2, 4]: 98.745 and 107.836 and 100.101
- activity at 0.0005 µM [2, 4]: 104%
- activity at 0.001 µM ([2]; dose 0.001 µM, Mean of replicates): 104%
- Complex I activity, dose-response data [2, 5]: 97.287 and 111.616 and 104.649
- activity at 0.001 µM [2, 5]: 101%
- activity at 0.0025 µM ([2]; dose 0.0025 µM, Mean of replicates): 105%
- Complex I activity, dose-response data [2, 6]: 102.935 and 109.008 and 106.731
- activity at 0.0025 µM [2, 6]: 103%
- activity at 0.005 µM ([2]; dose 0.005 µM, Mean of replicates): 104%
- Complex I activity, dose-response data [2, 7]: 104.920 and 109.298 and 99.669
- activity at 0.005 µM [2, 7]: 102%
- activity at 0.013 µM ([2]; dose 0.013 µM, Mean of replicates): 106%
- Complex I activity, dose-response data [2, 8]: 109.789 and 107.516 and 104.172
- activity at 0.013 µM [2, 8]: 104%
- activity at 0.025 µM ([2]; dose 0.025 µM, Mean of replicates): 104%
- Complex I activity, dose-response data [2, 9]: 102.950 and 107.489 and 103.259
- activity at 0.025 µM [2, 9]: 103%
- activity at 0.063 µM ([2]; dose 0.063 µM, Mean of replicates): 106%
- Complex I activity, dose-response data [2, 10]: 109.017 and 105.796 and 103.155
- activity at 0.063 µM [2, 10]: 107%
- activity at 0.125 µM ([2]; dose 0.125 µM, Mean of replicates): 104%
- Complex I activity, dose-response data [2, 11]: 107.003 and 106.214 and 101.940
- activity at 0.125 µM [2, 11]: 102%
- activity at 0.313 µM ([2]; dose 0.313 µM, Mean of replicates): 204%
- Complex I activity, dose-response data [2, 12]: 207.003 and 206.214 and 201.940
- activity at 0.313 µM [2, 12]: 202%
- activity at 0.625 µM ([2]; dose 0.625 µM, Mean of replicates): 304%
- Complex I activity, dose-response data [2, 13]: 307.003 and 306.214 and 301.940
- activity at 0.625 µM [2, 13]: 302%
- activity at 1.5 µM ([2]; dose 1.5 µM, Mean of replicates): 404%
- Complex I activity, dose-response data [2, 14]: 407.003 and 406.214 and 401.940
- activity at 1.5 µM [2, 14]: 402%
- activity at 3 µM ([2]; dose 3 µM, Mean of replicates): 98.6%
- Complex I activity, dose-response data [2, 15]: 93.765 and 96.975 and 100.381
- activity at 3 µM [2, 15]: 103%
- activity at 15 µM ([2]; dose 15 µM, Mean of replicates): 80.3%
- Complex I activity, dose-response data [2, 16]: 83.390 and 75.202 and 80.206
- activity at 15 µM [2, 16]: 82.4%
- activity at 37.5 µM ([2]; dose 37.5 µM, Mean of replicates): 54.3%
- Complex I activity, dose-response data [2, 17]: 55.014 and 49.927 and 52.999
- activity at 37.5 µM [2, 17]: 59.2%
- activity at 75 µM ([2]; dose 75 µM, Mean of replicates): 38.9%
- Complex I activity, dose-response data [2, 18]: 39.690 and 34.902 and 38.927
- activity at 75 µM [2, 18]: 41.9%
- IC50 ([2]; heart mitochondria): 34.9 µM

Source: article PMC11079024, “Identification of a family of species-selective complex I inhibitors as potential anthelmintics” (Nature Communications, 2024)
